Source: ChEMBL document CHEMBL1201862, “PubChem BioAssay data set” (2004)
Calls of active or inactive are those of the source.

Assays:
[1] = target: T1, Heat shock factor protein 1 (Mus musculus, UniProt P38532); experiment: inhibition of MG132-induced HSE-luciferase signal, confirmation, cell-based, NIH3T3, luminescence, dose retest (AID 2382); assay type: functional;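 also: NIH3T3 fibroblasts with HSF1-driven luciferase reporter stressed by proteasome inhibitor MG132; luminescence from HSF1-driven luciferase expression after 8 hours of MG132 stress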
T1 sequence (P38532 whole entry): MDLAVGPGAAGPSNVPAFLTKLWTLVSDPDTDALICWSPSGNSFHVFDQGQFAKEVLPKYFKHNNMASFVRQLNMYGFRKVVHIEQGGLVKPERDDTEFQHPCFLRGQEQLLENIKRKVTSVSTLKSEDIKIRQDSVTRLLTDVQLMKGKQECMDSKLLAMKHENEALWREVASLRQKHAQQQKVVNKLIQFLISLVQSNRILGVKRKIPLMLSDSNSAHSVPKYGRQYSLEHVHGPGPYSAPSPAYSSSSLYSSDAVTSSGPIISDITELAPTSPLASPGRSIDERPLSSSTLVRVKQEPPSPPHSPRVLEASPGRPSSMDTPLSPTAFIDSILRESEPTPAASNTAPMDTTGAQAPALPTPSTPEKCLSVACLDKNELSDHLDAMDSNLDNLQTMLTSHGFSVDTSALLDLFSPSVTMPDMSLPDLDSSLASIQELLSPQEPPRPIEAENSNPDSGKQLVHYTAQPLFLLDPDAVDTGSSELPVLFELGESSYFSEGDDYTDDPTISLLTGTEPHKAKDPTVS

[2] = target: T2, Carboxy-terminal domain RNA polymerase II polypeptide A small phosphatase 1 (Homo sapiens, UniProt Q9GZU7); experiment: inhibitors of CTDSP1, concentration-response testing, biochemical assay, absorbance-based, actives from ultra-high-throughput screening (AID 540297); assay type: functional
T2 sequence (Q9GZU7 whole entry): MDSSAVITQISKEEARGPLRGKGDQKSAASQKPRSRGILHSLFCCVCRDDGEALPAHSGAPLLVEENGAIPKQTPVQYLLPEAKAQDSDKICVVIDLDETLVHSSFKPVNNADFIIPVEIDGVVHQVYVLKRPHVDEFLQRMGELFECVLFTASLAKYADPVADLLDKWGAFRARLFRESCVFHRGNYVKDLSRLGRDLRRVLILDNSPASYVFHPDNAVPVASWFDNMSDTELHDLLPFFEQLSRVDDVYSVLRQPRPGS

[3] = target: T3, Protein RecA (Mycobacterium tuberculosis, UniProt P9WHJ3); experiment: Fluorescence Cell-Free Homogeneous Dose Retest to Identify Inhibitors of RecA-Intein Splicing Activity. [Related pubchem assays (depositor defined):AID2097, AID2223, AID489010, AID492950]; assay type: functional
T3 sequence (P9WHJ3 whole entry): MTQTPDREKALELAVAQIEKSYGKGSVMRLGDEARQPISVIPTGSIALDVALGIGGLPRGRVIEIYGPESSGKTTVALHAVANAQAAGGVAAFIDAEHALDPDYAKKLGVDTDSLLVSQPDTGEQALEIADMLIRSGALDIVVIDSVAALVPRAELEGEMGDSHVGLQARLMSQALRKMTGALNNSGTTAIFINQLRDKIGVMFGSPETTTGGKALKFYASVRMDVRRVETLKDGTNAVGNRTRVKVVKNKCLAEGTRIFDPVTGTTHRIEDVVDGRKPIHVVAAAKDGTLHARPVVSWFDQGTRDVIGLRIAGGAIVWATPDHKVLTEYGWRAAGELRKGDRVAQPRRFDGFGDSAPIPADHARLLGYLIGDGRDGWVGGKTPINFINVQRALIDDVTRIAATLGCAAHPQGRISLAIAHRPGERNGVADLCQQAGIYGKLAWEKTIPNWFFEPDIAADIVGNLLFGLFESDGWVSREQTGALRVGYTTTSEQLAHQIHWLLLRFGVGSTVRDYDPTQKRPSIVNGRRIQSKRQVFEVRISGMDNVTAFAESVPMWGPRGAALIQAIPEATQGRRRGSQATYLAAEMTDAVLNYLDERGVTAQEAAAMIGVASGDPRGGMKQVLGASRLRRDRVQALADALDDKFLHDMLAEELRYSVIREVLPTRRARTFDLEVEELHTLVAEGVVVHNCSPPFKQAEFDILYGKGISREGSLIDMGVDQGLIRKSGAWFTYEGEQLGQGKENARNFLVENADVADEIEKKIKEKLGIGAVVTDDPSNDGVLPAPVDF

[4] = target: T4, Replicative DNA helicase DnaB (Mycobacterium tuberculosis, UniProt P9WMR3); experiment: DnaB intein splicing inhibitors, dose response, biochemical, cell-free fluorescence (AID 449749); assay type: functional
T4 sequence (P9WMR3 whole entry): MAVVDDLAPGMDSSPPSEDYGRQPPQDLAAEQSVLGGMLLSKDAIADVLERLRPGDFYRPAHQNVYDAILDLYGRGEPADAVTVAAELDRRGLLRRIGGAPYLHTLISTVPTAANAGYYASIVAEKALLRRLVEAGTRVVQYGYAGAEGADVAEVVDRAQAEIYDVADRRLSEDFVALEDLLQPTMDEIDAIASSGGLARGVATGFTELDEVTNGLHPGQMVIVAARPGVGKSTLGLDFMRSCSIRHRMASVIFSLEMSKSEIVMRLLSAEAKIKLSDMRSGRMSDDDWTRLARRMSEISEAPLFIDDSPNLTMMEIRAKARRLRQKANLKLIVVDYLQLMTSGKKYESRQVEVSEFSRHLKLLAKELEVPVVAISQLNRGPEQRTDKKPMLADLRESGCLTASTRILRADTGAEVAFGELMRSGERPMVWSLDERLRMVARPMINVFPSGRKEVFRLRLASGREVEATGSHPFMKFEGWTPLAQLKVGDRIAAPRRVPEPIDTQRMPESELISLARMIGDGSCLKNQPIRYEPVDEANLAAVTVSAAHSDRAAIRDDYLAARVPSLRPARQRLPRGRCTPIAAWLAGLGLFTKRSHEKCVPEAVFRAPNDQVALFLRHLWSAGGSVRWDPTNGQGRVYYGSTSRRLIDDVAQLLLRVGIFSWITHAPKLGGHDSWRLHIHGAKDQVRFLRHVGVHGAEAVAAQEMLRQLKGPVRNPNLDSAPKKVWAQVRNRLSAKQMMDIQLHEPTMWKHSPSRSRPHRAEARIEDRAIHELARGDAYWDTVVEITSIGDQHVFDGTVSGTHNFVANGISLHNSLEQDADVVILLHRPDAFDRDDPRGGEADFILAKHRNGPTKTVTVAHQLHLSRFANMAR

[5] = target: T5, Zinc finger protein mex-5 (Caenorhabditis elegans, UniProt Q9XUB2); experiment: MEX-5/TCR-2 RNA interaction inhibitors, dose response, biochemical, C. elegans, fluorescence polarization (AID 1960)
T5 sequence (Q9XUB2 whole entry): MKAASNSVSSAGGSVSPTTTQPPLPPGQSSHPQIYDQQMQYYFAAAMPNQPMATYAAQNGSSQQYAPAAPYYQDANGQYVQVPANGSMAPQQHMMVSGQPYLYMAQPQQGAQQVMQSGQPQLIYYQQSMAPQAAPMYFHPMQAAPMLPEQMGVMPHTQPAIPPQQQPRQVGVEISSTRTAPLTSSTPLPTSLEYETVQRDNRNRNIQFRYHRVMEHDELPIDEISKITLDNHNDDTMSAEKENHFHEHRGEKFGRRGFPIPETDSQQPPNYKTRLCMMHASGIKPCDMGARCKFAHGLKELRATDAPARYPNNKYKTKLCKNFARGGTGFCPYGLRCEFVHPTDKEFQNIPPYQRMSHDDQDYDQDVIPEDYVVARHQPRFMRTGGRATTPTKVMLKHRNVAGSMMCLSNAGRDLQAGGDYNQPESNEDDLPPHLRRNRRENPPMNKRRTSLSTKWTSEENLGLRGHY

[6] = target: T6, RNA-binding protein pos-1 (Caenorhabditis elegans, UniProt G5EF15); experiment: inhibitors of POS-1/mex-3 RNA binding, dose response, biochemical, fluorescence polarization (AID 1964);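 also: purified POS-1 fused to maltose binding protein made in E. coli; potency of compounds blocking POS-1 binding to fluorescent RNA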
T6 sequence (G5EF15 whole entry): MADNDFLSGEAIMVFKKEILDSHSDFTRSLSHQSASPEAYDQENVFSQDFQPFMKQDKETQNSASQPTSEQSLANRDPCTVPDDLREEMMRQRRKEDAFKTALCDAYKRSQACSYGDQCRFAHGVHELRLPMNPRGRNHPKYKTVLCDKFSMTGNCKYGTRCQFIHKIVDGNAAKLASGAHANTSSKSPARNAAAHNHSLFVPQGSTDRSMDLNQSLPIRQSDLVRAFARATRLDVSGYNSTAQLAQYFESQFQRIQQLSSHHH

[7] = target: Cytochrome P450 2C9 (Homo sapiens, UniProt P11712)
Cytochrome P450 2C9, sequence (P11712 whole entry): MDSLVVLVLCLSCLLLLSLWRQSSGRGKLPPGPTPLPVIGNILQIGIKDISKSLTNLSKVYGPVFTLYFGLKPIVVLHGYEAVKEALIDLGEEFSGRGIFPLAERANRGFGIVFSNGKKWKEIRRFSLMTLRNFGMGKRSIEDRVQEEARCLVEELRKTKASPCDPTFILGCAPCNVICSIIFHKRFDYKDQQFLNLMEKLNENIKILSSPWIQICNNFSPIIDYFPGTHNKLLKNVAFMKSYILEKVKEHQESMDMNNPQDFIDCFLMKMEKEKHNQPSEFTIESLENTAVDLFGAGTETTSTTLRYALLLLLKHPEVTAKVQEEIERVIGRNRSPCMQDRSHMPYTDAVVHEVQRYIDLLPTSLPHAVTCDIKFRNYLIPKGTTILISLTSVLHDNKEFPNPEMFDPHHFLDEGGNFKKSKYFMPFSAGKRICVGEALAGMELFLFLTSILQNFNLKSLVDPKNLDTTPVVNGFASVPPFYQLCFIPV

[8] = target: Cytochrome P450 3A4 (Homo sapiens, UniProt P08684);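 also: CYP3A4 tested as one member of a cytochrome P450 panel screen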
Cytochrome P450 3A4, sequence (P08684 whole entry): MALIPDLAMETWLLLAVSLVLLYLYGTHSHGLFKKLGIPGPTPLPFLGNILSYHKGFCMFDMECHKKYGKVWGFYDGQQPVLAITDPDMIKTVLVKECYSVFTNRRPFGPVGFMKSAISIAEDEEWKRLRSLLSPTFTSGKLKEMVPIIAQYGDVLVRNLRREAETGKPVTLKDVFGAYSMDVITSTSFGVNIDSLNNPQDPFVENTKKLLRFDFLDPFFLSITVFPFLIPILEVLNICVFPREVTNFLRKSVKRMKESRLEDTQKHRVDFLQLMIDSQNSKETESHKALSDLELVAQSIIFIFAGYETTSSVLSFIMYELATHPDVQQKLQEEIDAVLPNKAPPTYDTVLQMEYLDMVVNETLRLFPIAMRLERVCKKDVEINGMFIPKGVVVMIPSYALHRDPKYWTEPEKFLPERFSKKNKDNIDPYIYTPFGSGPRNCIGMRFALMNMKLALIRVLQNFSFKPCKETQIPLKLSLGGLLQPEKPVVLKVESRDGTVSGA

[9] = HEp-2 cell cytotoxicity, dose response, cytotoxicity control for RSV inhibitor project, HTS (AID 2410); assay type: functional; conditions: human respiratory syncytial virus
[10] = test system: H4; experiment: Luminescence Cell-Based Dose Response HTS to Identify Activators of 5'UTR Stem-Loop Driven Prion Protein mRNA Translation in H4 Neuroglioblastoma Cells. [Related pubchem assays: 1829 (Project Summary), 1814 (Primary HTS)]; assay type: functional; conditions: Homo sapiens
[11] = Luminescence Cell-Based Dose Response HTS to Identify Activators of Luciferase Translation or Activity in H4 […] Cells. [Related pubchem assays: 1829 (Project Summary), 1814 (Primary HTS)]; assay type: functional
[12] = test system: H9c2; experiment: cells; assay type: functional, cell-based; conditions: Rattus norvegicus, H9c2, Myocardium;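 also: confirmatory concentration-response retest of ultra-high-throughput screening hits for modulation of myocardial damage; cell death induced by hydrogen peroxide oxidative stress; compound pretreatment for 60 min then peroxide exposure for 2 h; potency is for protecting the cells against peroxide damage rather than for killing them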

SMILES: Cc1cc(N2CCC(C)CC2)n2ncc(-c3ccccc3)c2n1
- EC50 [1]: < 0.16 µM (active)

SMILES: COc1cccc(C(=O)c2cn(CC(=O)NCc3ccco3)c3nc(C)ccc3c2=O)c1
- IC50 [2]: 11.2 µM (active)

SMILES: Cc1ccc(C2C(C#N)=C(N)Oc3[nH]nc(C)c32)cc1 (stereo not drawn)
- EC50 [3]: 3.56 µM (active)
- AC50 [4]: 7.89 µM (active)

SMILES: CCc1ccc(OCc2cccc(C(=O)N/N=C\c3cnn(C)c3C)c2)cc1
- IC50 [2]: 9.07 µM (active)

SMILES: COCCN1CCC(CNCc2c(C(=O)N3CCCCC3)nc3c(C)cccn23)C1 (stereo not drawn)
- EC50 [5]: > 300 µM (not active)
- EC50 [6]: > 300 µM (not active)

SMILES: Cc1ccccc1NC(=O)CN1C(=O)S/C(=C\c2cccn2-c2cccc(C(=O)O)c2)C1=O
- IC50 [2]: 4.23 µM (active)
- EC50 [5]: > 300 µM (not active)
- EC50 [6]: > 300 µM (not active)

SMILES: O=C1CCN(S(=O)(=O)c2ccccc2)N1
- EC50 [3]: 3.73 µM (active)
- AC50 [7]: 12.6 µM (inconclusive)
- AC50 [8]: 28.2 µM (inconclusive)
- AC50 [4]: 31.2 µM (active)

SMILES: Cc1cc(Cl)ccc1OC(C)C(=O)NC(C)C1CCCO1 (stereo not drawn)
- EC50 [1]: > 195 µM (not active)

SMILES: O=C(Nc1ccnn1C1CCN(CC2CC=CCC2)CC1)c1ccccc1 (stereo not drawn)
- EC50 [5]: 52.3 µM (active)
- EC50 [6]: 43.2 µM (active)

SMILES: CCCc1n[nH]c2c1C(c1cccc(OC(=O)c3ccco3)c1)C(C#N)=C(N)O2 (stereo not drawn)
- EC50 [3]: 4.91 µM (active)
- AC50 [4]: 5.48 µM (active)

SMILES: COc1ccccc1/C=C/CN1CCC(Oc2cc(C(=O)NC3CC3)ccc2OC)CC1
- EC50 [1]: > 195 µM (not active)

SMILES: Cc1sc(-c2ccccn2)nc1OC(=O)c1cccc(Cl)c1Cl
- EC50 [5]: > 300 µM (not active)
- EC50 [6]: > 300 µM (not active)

SMILES: C#CCOc1ccc(Br)cc1C(c1c(C)n[nH]c1O)c1c(C)n[nH]c1O
- EC50 [3]: 1.03 µM (active)
- AC50 [4]: 0.973 µM (active)

SMILES: O=C(COC(=O)C1CCCC1)Nc1ncc(Cl)cc1Cl
- EC50 [5]: 34.3 µM (active)
- EC50 [6]: > 300 µM (not active)

SMILES: CCOC(=O)c1ccc(NC(=O)CC2COc3ccccc3O2)cc1 (stereo not drawn)
- EC50 [1]: > 195 µM (not active)

SMILES: CCCOc1ccc(C(=O)C2=C(O)C(=O)N(CCN(C)C)C2c2ccc(O)c(OC)c2)cc1 (stereo not drawn)
- EC50 [1]: > 195 µM (not active)

SMILES: CCOC(=O)c1c(C)oc2c1c1c(c3ccccc32)OCN(CCCC(=O)O)C1
- CC50 [9]: 43.6 µM (active)
- EC50 [3]: 4.11 µM (active)
- EC50 [10]: 11 µM (active)
- EC50 [11]: 22.8 µM (active)
- AC50 [4]: > 120 µM (inactive)

SMILES: O=C(COC(=O)c1ccc2c(c1Cl)C(=O)c1ccccc1C2=O)NC1CC1
- EC50 [3]: 12.9 µM (active)
- AC50 [4]: 26.2 µM (active)

SMILES: COC(=O)C1=C(COc2ccccc2)NC(=O)NC1c1ccc2ccccc2c1 (stereo not drawn)
- IC50 [2]: 13.8 µM (active)

SMILES: COc1cccc(-n2c(N)c(-c3nc4ccccc4[nH]3)sc2=S)c1
- EC50 [1]: > 195 µM (not active)

SMILES: O=C(O)CSc1ccccc1C(=O)O
- EC50 [1]: > 195 µM (not active)

SMILES: O=C(N/N=C/c1ccccn1)c1cc(-c2ccc(Br)s2)n[nH]1
- IC50 [2]: 8.5 µM (active)

SMILES: O=C(COC(=O)CCc1nc(O)c2ccccc2n1)Nc1c(Cl)cccc1C(F)(F)F
- IC50 [12]: > 79 µM (inactive)
- EC50 [1]: > 195 µM (not active)

SMILES: Cc1nc2c(ncn2-c2ccccc2)c(=O)n1NC(=O)CN1CCOCC1
- EC50 [1]: > 195 µM (not active)

SMILES: NN1C(=O)/C(=C2/Sc3ccccc3N2CCCS(=O)(=O)O)SC1=S
- IC50 [2]: 8.53 µM (active)
